In patent US20060178311A1, “Control of lactation” (Hannah Research Institute, priority 2003, published 2006):
Ends that are not written are not given here.

Tested on: mammary acini from tissue of lactating mice
Test: Mammary acini culture bioassay: secretion of [3H]leucine-labelled protein
Type: cell-based, mouse
Conditions: 0.01-10.0 μM, singly or in combination, 2 hours
Protocol: Mammary cells were prepared from tissue of lactating mice by collagenase digestion according to the method of K Hendry, K Simpson, K Nicholas & C Wilde. Journal of Molecular Endocrinology 21: 169-177 (1998). The resultant suspension of mammary acini consisted predominantly of groups of 50-200 cells, and was cultured in medium (Medium 199/Ham's F12: 50:50 v/v) containing insulin (5 μg/ml), hydrocortisone (0.1 μg/ml) and prolactin (1 μg/ml). Culture density was 1.5×10^6 cells/ml, and cells were maintained at 37° C. in an atmosphere of 5% CO2 in air. Protein synthesis and secretion were measured by continuous labelling with L-[4.5-3H]leucine ([…]; 10-20 μCi/ml) for 2 hours in the presence or absence of milk fractions (at concentrations of 0.2-4.0 μg/ml) or synthetic peptides (0.01-10 μM). […] Radiolabel incorporation was measured by precipitation with trichloroacetic acid (final concentration 10% w/v). […]
The amount of radiolabelled protein secreted by acini in the presence of milk extracts or synthetic peptides was expressed as a percentage of that produced by the cells to which no milk fraction or peptide was added. […]
Protein secretion was measured in mammary acini cultures in the presence and absence of synthetic peptides. […]

With “AVAVSQEAN (also: C-terminal cysteine) [Peptide B, nine amino acid synthetic peptide]” the “effect of synthetic peptides on protein secretion” value was “stimulatory effect”.

RPKHPIKHQG [Peptide A] was tested, and the “effect of synthetic peptides on protein secretion” value was “inhibitory action”.
